Laboratory results as given in patent US20250161307A1, “PYRAZOLOPYRIMIDINES AS MODULATORS OF SPERMINE OXIDASE” (Janssen Pharmaceutica NV, priority 2022, published 2025).

Experiments:
SMOX [1] = target: T1, SMOX (Homo sapiens (Human), UniProt Q9NWM0); experiment: Human SMOX assay (HyPerBlu chemiluminescent detection of hydrogen peroxide); type: biochemical; conditions: 2.5 nM full length hSMOX, spermine substrate, 1 h at room temperature, luminescence read; read-out: SMOx_IC50
Outline: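 Full-length N-His human SMOX (2.5 nM, E. coli-expressed) was incubated 1 h at room temperature with 30 µM spermine, 11-point compound dilutions and 1.25% DMSO in pH 7.4 HEPES/NaCl/EGTA buffer. H2O2 was detected by HyPerBlu chemiluminescence after 30 min, and IC50 came from dose–response fits.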

hPAOX = hPAOX (Homo sapiens (Human), UniProt Q6QHF9); experiment: Human PAOX assay (HyPerBlu chemiluminescent detection of hydrogen peroxide); type: biochemical; conditions: 60 pM recombinant PAOX, 20 μM N-acetylspermine substrate
Chain of hPAOX (Q6QHF9 whole entry): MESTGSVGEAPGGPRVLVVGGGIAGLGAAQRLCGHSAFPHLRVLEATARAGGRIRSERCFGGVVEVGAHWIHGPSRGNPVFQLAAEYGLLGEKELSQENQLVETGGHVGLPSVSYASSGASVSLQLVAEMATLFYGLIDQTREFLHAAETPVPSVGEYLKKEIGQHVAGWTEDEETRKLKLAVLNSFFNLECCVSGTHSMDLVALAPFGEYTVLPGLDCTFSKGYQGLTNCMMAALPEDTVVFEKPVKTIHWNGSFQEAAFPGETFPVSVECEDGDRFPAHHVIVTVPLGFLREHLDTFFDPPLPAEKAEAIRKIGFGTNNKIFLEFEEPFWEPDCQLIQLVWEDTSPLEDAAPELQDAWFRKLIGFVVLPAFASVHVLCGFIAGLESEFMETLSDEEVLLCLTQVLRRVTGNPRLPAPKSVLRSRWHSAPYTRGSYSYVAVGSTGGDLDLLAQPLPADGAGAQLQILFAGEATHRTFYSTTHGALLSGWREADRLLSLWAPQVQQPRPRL
Outline: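 His-tagged recombinant PAOX expressed in sf9 insect cells was used at 60 pM, with 20 μM N-acetylspermine as substrate. Hydrogen peroxide formed by the reaction was detected by chemiluminescence from a boronate probe (HyPerBlu). Inhibition appears as lower luminescence.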

SMOX [2] = target: T1, SMOX; experiment: Cellular Thermal Shift Assay (CETSA) with alphaLISA detection of intact SMOX in A549 cells; type: cell-based; conditions: 1 hour compound incubation at 37° C., heated to 55° C. for 5 minutes
From the text: The Cellular Thermal Shift Assay (CETSA) is a biophysical assay based on the principle of ligand-induced thermal stabilization of target proteins, meaning that a protein denaturing temperature will change upon ligand interaction. Thus, by heating samples (i.e. cells, ex vivo samples) to different temperatures, and quantifying conformationally intact proteins we can detect compound-protein interactions after compound treatment. CETSA allows direct monitoring of ligand binding to a specific target (target engagement). In our study, we have developed a suitable detection system that will detect intact SMOX using the alphaLISA. […] The detection of compound -SMOX ligand binding is performed using A549 cells. This adenocarcinoma human alveolar basal epithelial cell line expresses high levels of SMOX. Their use has been widely reported in the literature with respect to the investigation of the SMOX pathway. Using SMOX high-expressing cells with CETSA and alphaLISA systems provides the optimal platform for screening small molecules for SMOX inhibition.
A549 cells were seeded at a density of 0.05-0.1×10^6 cells/mL in T175 flasks and cultured in 25 mL of culture medium consisting in RPMI 1640 medium (Gibco) supplemented with 10% fetal bovine serum (Gibco). Cells were passaged twice per week and used for CETSA assays before reaching confluency. One day prior to the CETSA cells were seeded in 384-well white assay plates (Corning) at 15000 cells per well. Briefly, cells were washed with PBS (Life Technologies Europe BV) and dissociated by adding 2 mL TrypLE™ Select (Life Technologies Europe BV). After 5 min at 37° C., cells were resuspended in culture medium, counted using a ViCell XR cell counter (ViCell) and seeded in the 384-well plates.
Compounds were pre-diluted in PBS to a final concentration of […] and 1% DMSO and serially diluted in PBS 1% DMSO. For compound-cell incubation, medium in the 384 well plates was replaced with 30 μL of serially diluted compounds. After incubation at 37° C. for 1 hour the liquid was removed and plates were heated to 55° C. for 5 minutes and then transferred to ice for 5 minutes. After the cooling step, cells were lysed by adding 15 μL 1× alphaLISA-buffer (Perkin Elmer) containing anti-SMOX monoclonal antibody #2 and anti-SMOX Fab-fragment #33 mixture at a concentration of 5 and 0.5 nM respectively. After one hour at RT, 5 μL anti-6×His alphaLISA acceptor beads (50 mg/L, AL128C, Perkin Elmer) were added to the wells followed by an additional incubation of one hour at RT. Then 5 μL anti-rabbit IgG alpha donor beads (200 mg/L was added to the wells. After one hour incubation at RT the alpha signal was read using an alpha compatible reader. MDL75257 (M2949, Sigma) was used as positive control for compound-SMOX interaction. Compound-SMOX interaction is detected through the comparison of the high alpha signal of the negative control with the much lower signal of the wells that contain SMOX binding compounds.

[3] = animal cancer models; cited from earlier work
[4] = associated disease models; cited from earlier work

T1 sequence (Q9NWM0 whole entry): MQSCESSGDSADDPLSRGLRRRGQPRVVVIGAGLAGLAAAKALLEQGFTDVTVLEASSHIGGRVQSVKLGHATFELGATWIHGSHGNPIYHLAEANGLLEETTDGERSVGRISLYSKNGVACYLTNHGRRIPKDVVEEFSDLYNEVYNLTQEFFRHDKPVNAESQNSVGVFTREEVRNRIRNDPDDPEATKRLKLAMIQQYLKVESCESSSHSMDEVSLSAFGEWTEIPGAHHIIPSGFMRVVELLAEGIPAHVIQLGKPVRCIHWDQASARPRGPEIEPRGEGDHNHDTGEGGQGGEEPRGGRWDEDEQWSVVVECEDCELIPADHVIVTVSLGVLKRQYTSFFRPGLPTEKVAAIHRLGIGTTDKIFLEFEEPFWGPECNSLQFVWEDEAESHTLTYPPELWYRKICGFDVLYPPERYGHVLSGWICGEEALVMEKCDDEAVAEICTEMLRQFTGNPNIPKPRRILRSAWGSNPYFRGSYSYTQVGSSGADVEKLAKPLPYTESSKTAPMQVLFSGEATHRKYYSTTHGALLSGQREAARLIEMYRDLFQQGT

Compound | IC50 (SMOX [1]) [nM] | IC50 (hPAOX) [nM] | SMOx % recovery CETSA (SMOX [2]) [%] | cancer incidence [3] | neuronal death and retinal degeneration [4]
N#Cc1cccc(-c2cc(-c3ccccc3)nc3cc(C(=O)NCCCn4ccnc4)nn23)c1 [Example 89, N-(3-(1H-imidazol-1-yl)propyl)-7-(3-cyanophenyl)-5-phenylpyrazolo[1,5-a]pyrimidine-2-carboxamide] | 159 | 879 | 0 | – | –
N#Cc1ccc(-c2cc(-c3ccccc3)nc3cc(C(=O)NCCCn4ccnc4)nn23)cc1 [Example 90, N-(3-(1H-imidazol-1-yl)propyl)-7-(4-cyanophenyl)-5-phenylpyrazolo[1,5-a]pyrimidine-2-carboxamide] | 78 | 1610 | 3 | – | –
C=C=CCNCCCCNCC=C=C.Cl.Cl [MDL 72527, N^1,N^4-di-2,3-butadienyl-1,4-butanediamine dihydrochloride] | – | – | – | significantly reduced cancer incidence | reduced neuronal death and retinal degeneration

The remaining compounds from weak to strong by IC50 (SMOX [1]), led by results:

IC50 (SMOX [1]) [nM] | IC50 (hPAOX) [nM] | SMOx % recovery CETSA (SMOX [2]) [%] | Compound | cancer incidence [3] | neuronal death and retinal degeneration [4]
239 | 520 | 20 | CN1CC(NC(=O)c2cc3nc(-c4ccccc4)cc(-c4ccccn4)n3n2)C1 [Example 92, N-(1-methylazetidin-3-yl)-5-phenyl-7-(pyridin-2-yl)pyrazolo[1,5-a]pyrimidine-2-carboxamide] | – | –
102 | 1570 | 0 | O=C(NCCCn1ccnc1)c1cc2nc(-c3ccccc3)cc(-c3ccc(O)cc3)n2n1 [Example 88, N-(3-(1H-imidazol-1-yl)propyl)-7-(4-hydroxyphenyl)-5-phenylpyrazolo[1,5-a]pyrimidine-2-carboxamide] | – | –
58 | 2920 | 52 | O=C(NCCCn1ccnc1)c1cc2nc(-c3ccccc3)cc(C3CCCCO3)n2n1 (centres unmarked) [Example 111, N-(3-(1H-imidazol-1-yl)propyl)-5-phenyl-7-(tetrahydro-2H-pyran-2-yl)pyrazolo[1,5-a]pyrimidine-2-carboxamide] | – | –
43 | 2050 | 111 | O=C(NCCCn1ccnc1)c1cc2nc(-c3ccccc3)cc(-c3ccccn3)n2n1 [Example 91, N-(3-(1H-imidazol-1-yl)propyl)-5-phenyl-7-(pyridin-2-yl)pyrazolo[1,5-a]pyrimidine-2-carboxamide] | – | –
22 | 1270 | 24 | O=C(NCCCn1ccnc1)c1cc2nc(-c3ccccc3)cc(C3CCCCC3)n2n1 [Example 107, N-(3-(1H-imidazol-1-yl)propyl)-7-cyclohexyl-5-phenylpyrazolo[1,5-a]pyrimidine-2-carboxamide] | – | –
